Where only a bound is given, the exact number is not on record here.

Series [1] addresses T1, HvSSI (Hordeum vulgare, UniProt Q9M5A3).
T1 construct: gene SSI; without predicted chloroplast transit peptide, N-terminal His-tag, codon-optimised, E. coli
T1 sequence (Q9M5A3 32-643): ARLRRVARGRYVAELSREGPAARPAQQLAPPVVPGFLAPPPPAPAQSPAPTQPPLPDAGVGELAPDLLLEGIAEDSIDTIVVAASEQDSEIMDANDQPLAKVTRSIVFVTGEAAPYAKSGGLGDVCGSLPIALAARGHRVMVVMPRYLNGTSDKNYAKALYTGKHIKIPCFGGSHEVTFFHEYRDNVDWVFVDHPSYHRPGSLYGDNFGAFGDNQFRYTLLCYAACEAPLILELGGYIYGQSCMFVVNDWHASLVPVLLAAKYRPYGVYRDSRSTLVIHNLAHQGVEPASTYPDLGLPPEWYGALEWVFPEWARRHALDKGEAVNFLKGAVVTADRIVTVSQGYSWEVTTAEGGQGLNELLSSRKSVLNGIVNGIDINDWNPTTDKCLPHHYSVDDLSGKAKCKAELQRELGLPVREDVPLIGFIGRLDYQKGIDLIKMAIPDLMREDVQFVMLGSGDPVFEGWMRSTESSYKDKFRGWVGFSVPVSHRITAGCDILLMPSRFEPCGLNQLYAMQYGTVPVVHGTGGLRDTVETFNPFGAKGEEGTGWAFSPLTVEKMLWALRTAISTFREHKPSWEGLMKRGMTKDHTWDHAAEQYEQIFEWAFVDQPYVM
The series can be described thus: biochemical. The arrangement: Thermofluor (differential scanning fluorimetry, Sypro orange), shift of melting temperature of HvSSI versus no additive. As to conditions: 0.1 mg/mL HvSSI, 1X Sypro orange, 20 mM Tris pH 8.0, 100 mM NaCl, read-out: Δ Tm to reference; for ΔTm at 10000 µM: 10 mM. The procedure:
HvSSI unfolding temperatures were measured with a variant of the Thermofluor method (Niesen et al., [2007]). Details are given in S.I. The effect of additives on SSI stability was studied in some detail with the thermofluor assay; details for many additives are given in S.I. The strongest effects were from sugars, which increased protein stability by 1°C for every 50 mM hexose present as oligosaccharides, with glucose and other monosaccharides having only half the effect.

Substrate in series [2]: Nc1ncnc2c1ncn2[C@@H]1O[C@H](COP(=O)(O)OP(=O)(O)O[C@H]2O[C@H](CO)[C@@H](O)[C@H](O)[C@H]2O)[C@@H](O)[C@H]1O
Briefly: coupled spectrophotometric assay (pyruvate kinase / lactate dehydrogenase, NADH). In kind it is biochemical, Hordeum vulgare. As to conditions: 10 mM maltotriose acceptor, 50 mM Bicine pH 8.5, 25 mM KOAc, 2 mM MgCl2, 37°C. The source says: coupled spectrophotometric assay (pyruvate kinase / lactate dehydrogenase, NADH) on HvSSIIIb

As to `OC[C@H]1O[C@H](O[C@H]2[C@H](O)[C@@H](O)[C@@H](O[C@H]3[C@H](O)[C@@H](O)[C@@H](O[C@H]4[C@H](O)[C@@H](O)[C@@H](O[C@H]5[C@H](O)[C@@H](O)C(O)O[C@@H]5CO)O[C@@H]4CO)O[C@@H]3CO)O[C@@H]2CO)[C@H](O)[C@@H](O)[C@@H]1O` (stereo partly shown) [maltopentaose], in series [1], the ΔTm at 10000 µM is 1.3 °C.

On to `OC[C@H]1O[C@H](O[C@H]2[C@H](O)[C@@H](O)C(O)O[C@@H]2CO)[C@H](O)[C@@H](O)[C@@H]1O` (mixture of isomers) [maltose], for which, in series [1], the ΔTm at 10000 µM came out at 0.3 °C.

Turning to `OC[C@H]1OC(O)[C@H](O)[C@@H](O)[C@@H]1O` (stereo partly shown) [glucose], the ΔTm at 100000 µM in series [1] (100 mM) was 1 °C.

In the case of `C[C@H]1O[C@H](O[C@H]2[C@H](O)[C@@H](O)[C@@H](O[C@H]3[C@H](O)[C@@H](O)C(O)O[C@@H]3CO)O[C@@H]2CO)[C@H](O)[C@@H](O)[C@@H]1N[C@H]1C=C(CO)[C@@H](O)[C@H](O)[C@H]1O` (stereo partly shown) [acarbose], the ΔTm at 10000 µM in series [1] was determined as 0.4 °C.

On to `OCC1OC(OC2C(CO)OC(OC3C(CO)OC(OC4C(CO)OC(OC5C(CO)OC(OC6C(CO)OC(OC7C(CO)OC(OC8C(CO)OC(O)C(O)C8O)C(O)C7O)C(O)C6O)C(O)C5O)C(O)C4O)C(O)C3O)C(O)C2O)C(O)C(O)C1O` (stereo not shown) [maltooctaose], for which the ΔTm at 10000 µM in series [1] came out at 2 °C.

B1: HvSSIIIb (Hordeum vulgare subsp. vulgare) (protein)
chain: SSDYPKRNPRRSSAPKPKGTASRGYAPRPSAESWTSTKKIEHGSADEDGDLGRSNGTLSGDATEQASTAEEESEVEFAGNVSSSAGLEGVAETEKEADQNQLPALSSTSMDVESVNEATEQTIIGDESSVVDFSGNVSGSVALEVVDESETEEEADQKQSSSLASTSMDSESIDRELEGYRARINALVGASTQEQDRSIIGVHDQDKSVISPNEQDISAVDVPEQGLSGVGVTREDPTKQTTSKQEITEAAVEEISSKNFVARKHSISGDGVEASKNANQQPLVDGDELKITEDEEQHEPEMQEYVRKDVDLQALKRRLEELADGNYSIGNKCFVFPELVKADSVIDLYLNRSMSALASEPDILIKGAFNGWRWNHFTERLHKSELSGDWWCCKLYIPKQAYRLDFVFFNGDTVYENNSYNDFVLHIESDIDEHSFEDFLLEEKQRELERLAAEEAERERQAEEERRKEEERAAMEADRAQAKAEVEMTRNNLQHVLGLASRYANNLWYIEPNTYKGGDRVRLYYNRSSGPLKHKNEIWLHGSYNNWTDGPSIVERLVKSDEQDGDWWYANVTLPESALVLDWVFADGPPGNARKYDNNGKRDFHAAVSKSISEDLFWVKEEHRIFERLQRERKEKEDAGRRKAEITARMKAEMKEKTMREFLLSQKHIVYTEPLEVRAGMTVDVLYNPSNTVLNGSPEVWFRCSFNRWTHPSGPLPPQKMVNAENGSHLQATVRVPLDAYMMDFVFSESEEGGMYDNRDGMDYHIPVSDSMAKEPPMHIVHIAVEMAPIAKVGGLGDVVTSLSRAIQDLGHKVEVVFPKYDCLNLSNVKDLHCRQSFTWGGTEIKVWFGKVEGISVYFLEPQNGMFWVGCVYGRNDESRFGFFCHSALEFLLQSGSSPDIIHCHDWSSAPVAWLYKQHYVHNGLPNGRVVFTIHNLEFGVHHIGKAMAHCDKATTVSYTYSKEVSGHGSIAPHYFKFHGIRNGIDSDIWDPYNDNFIPVHYTSENVVEGKSSAKRALQEKLGLHQTDSPLVGIISRLTAQKGIHLIKHAIYRTLERNGQVVLLGSAPDHRIQGDFSNLASKLHGEFDGRVKLCLTYDEPLSHLIYAGADFILVPSIFEPCGLTQLTAMRYGSIPIVRKTGGLYDTVFDVDDDKDRAREQGLEPNGFSFEGADSNGVDYALDRAITTWYDARGWFHSLCKRVMEQDWSWNRPALDYMELYHSARKN
notes: without predicted chloroplast transit peptide, N-terminal His-tag, codon-optimised, E. coli
As usually defined, the Km is the concentration of substrate that gives half-maximal velocity. On to B1, for which, in series [2], the Km came to 440 ± 40 µM and the kcat is >740 turnovers·min^-1 (DP = 3).

Source of the values: paper PMC4730117, “In vitro Biochemical Characterization of All Barley Endosperm Starch Synthases” (Frontiers in Plant Science, 2016).
